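Compound exposure: 48 hours, 5 concentrations, 96-well plates. TGI: total growth inhibition.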
How the values were obtained:
Experiment in all cases: inhibition of tumour cell growth, NCI panel, 48 h
RXF 393 renal = tested on: RXF 393 renal
A498 renal = tested on: A498 renal
K-562 leukemia = tested on: K-562 leukemia
786-0 renal = tested on: 786-0 renal
SK-MEL-2 melanoma = tested on: SK-MEL-2 melanoma
OVCAR-3 ovarian = tested on: OVCAR-3 ovarian
NCI-H226 lung = tested on: NCI-H226 lung
MOLT-4 leukemia = tested on: MOLT-4 leukemia
UO-31 renal = tested on: UO-31 renal
NCI-H522 lung = tested on: NCI-H522 lung
COLO 205 colon = tested on: COLO 205 colon
SK-MEL-28 melanoma = tested on: SK-MEL-28 melanoma
U251 CNS = tested on: U251 CNS
KM12 colon = tested on: KM12 colon
HOP-62 NSCLC = tested on: HOP-62 NSCLC
HT29 colon = tested on: HT29 colon
ACHN renal = tested on: ACHN renal
HOP-92 NSCLC = tested on: HOP-92 NSCLC
TK-10 renal = tested on: TK-10 renal
MCF7 breast = tested on: MCF7 breast
HS 578T breast = tested on: HS 578T breast
SK-MEL-5 melanoma = tested on: SK-MEL-5 melanoma
EKVX NSCLC = tested on: EKVX NSCLC
MALME-3M melanoma = tested on: MALME-3M melanoma
OVCAR-4 ovarian = tested on: OVCAR-4 ovarian
OVCAR-8 ovarian = tested on: OVCAR-8 ovarian
A549 NSCLC = tested on: A549 NSCLC
SN12C renal = tested on: SN12C renal
MDA-MB-435 = tested on: MDA-MB-435
M14 melanoma = tested on: M14 melanoma
PC-3 prostate = tested on: PC-3 prostate
NCI-H23 lung = tested on: NCI-H23 lung
MDA-MB-231 breast = tested on: MDA-MB-231 breast
SW-620 colon = tested on: SW-620 colon
UACC-62 melanoma = tested on: UACC-62 melanoma
SF-268 CNS = tested on: SF-268 CNS
T-47D breast = tested on: T-47D breast
CCRF-CEM leukemia = tested on: CCRF-CEM leukemia
SR leukemia = tested on: SR leukemia
DU-145 prostate = tested on: DU-145 prostate
HCT-116 colon = tested on: HCT-116 colon
HCT-15 colon = tested on: HCT-15 colon
HL-60(TB) leukemia = tested on: HL-60(TB) leukemia
HCC-2998 colon = tested on: HCC-2998 colon
OVCAR-5 ovarian = tested on: OVCAR-5 ovarian
SF-539 CNS = tested on: SF-539 CNS

With `CC(C)C1=CC23CCC4C(C)(C(=O)O)CCCC4(C)C2CC1C1C(=O)N(c2cccc(N4C(=O)C5C6CC7C8(C)CCCC(C)(C(=O)O)C8CCC7(C=C6C(C)C)C5C4=O)c2)C(=O)C13` (stereo unspecified) the TGI (RXF 393 renal) was 27 µM, the TGI (A498 renal) was 26.7 µM and the TGI (K-562 leukemia) was 96.1 µM. The TGI (786-0 renal) was over 100 µM, the TGI (SK-MEL-2 melanoma) was 29.9 µM and the TGI (OVCAR-3 ovarian) was 25.7 µM. It also gave a TGI (NCI-H226 lung) of 32.5 µM, a TGI (MOLT-4 leukemia) of 40.1 µM and a TGI (UO-31 renal) of 29.1 µM. For the same molecule, the TGI (NCI-H522 lung) was 29.7 µM, the TGI (COLO 205 colon) was 23.8 µM and the TGI (SK-MEL-28 melanoma) was 21.6 µM. The TGI (U251 CNS) was 11 µM, the TGI (KM12 colon) was 9.7 µM and the TGI (HOP-62 NSCLC) was 25.2 µM. The TGI (HT29 colon) was 10.8 µM, the TGI (ACHN renal) was 26.1 µM and the TGI (HOP-92 NSCLC) was 39.6 µM. For the same molecule, the TGI (TK-10 renal) was 30.4 µM, the TGI (MCF7 breast) was 16 µM and the TGI (HS 578T breast) was 24.6 µM. For the same molecule, the TGI (SK-MEL-5 melanoma) was 28.6 µM, the TGI (EKVX NSCLC) was 24.4 µM and the TGI (MALME-3M melanoma) was 32.9 µM. The TGI (OVCAR-4 ovarian) was over 100 µM, the TGI (OVCAR-8 ovarian) was 22.7 µM and the TGI (A549 NSCLC) was over 100 µM. For the same molecule, the TGI (SN12C renal) was 27.1 µM, the TGI (MDA-MB-435) was 15.2 µM and the TGI (M14 melanoma) was 25.5 µM. For the same molecule, the TGI (PC-3 prostate) was 17.9 µM, the TGI (NCI-H23 lung) was 12.2 µM and the TGI (MDA-MB-231 breast) was 39.2 µM. For the same molecule, the TGI (SW-620 colon) was 31.4 µM, the TGI (UACC-62 melanoma) was 80.1 µM and the TGI (SF-268 CNS) was 27.8 µM. The TGI (T-47D breast) was 33.7 µM, the TGI (CCRF-CEM leukemia) was 26.2 µM and the TGI (SR leukemia) was 45 µM. The TGI (DU-145 prostate) was 22.7 µM, the TGI (HCT-116 colon) was 21.3 µM and the TGI (HCT-15 colon) was 26.9 µM. The TGI (HL-60(TB) leukemia) was 30.7 µM, the TGI (HCC-2998 colon) was 20.3 µM and the TGI (OVCAR-5 ovarian) was 20 µM. The TGI (SF-539 CNS) was 57.7 µM.

Reference: PubChem BioAssay (NCI)
